Converted amounts (≈) assume the structure as drawn.

For assay [1], the system named is Staphylococcus aureus Smith. The assay is described as follows: Protective effects on bacterial infections in mice (Staphylococcus aureus Smith). The format is in vivo. The settings on record: im, 168 h, intraperitoneal challenge, compound intramuscularly one hour after infection, survival 7 days after infection, probit analysis, read-out: ED50 (median effective dose). The procedure: (§1) (Protective effects on bacterial infections in mice) Ten mice weighing 20±1 g were used for each dose level. Mice were challenged via the intraperitoneal route with sufficient bacteria to kill all non-treated mice within 24 hours. All bacteria were suspended in a physiological saline solution containing 6% mucin. A test compound was administered intramuscularly one hour after the infection. Survival ratios were determined 7 days after the infection. The median effective doses (ED50, mg/kg) of the test compound were estimated by the probit analysis.

The test system of assay [2] is Pseudomonas aeruginosa PI-67. The assay is described as follows: Antimicrobial activity in vitro (MIC, standard agar plate dilution method). The format is cell-based. As to conditions: PI67, Mueller-Hinton agar, read-out: M.I.C. (minimum inhibitory concentration). The procedure: (§2) (Antimicrobial activity in vitro)
(§3) The minimum inhibitory concentration (MIC, μg/ml) of a test compound was determined by means of a standard agar plate dilution method (based on the standard method of Japan Society of Chemotherapy). Media used in the experiment were Mueller-Hinton agar (MHA; product of Nissui).

Assay [3] deals with Staphylococcus aureus Smith. Described as above. The format is cell-based. As to conditions: Mueller-Hinton agar, read-out: M.I.C. (minimum inhibitory concentration). The procedure: as §2, §3
Assay [4] relates to Pseudomonas aeruginosa PI-67. The assay is described as follows: Protective effects on bacterial infections in mice (Pseudomonas aeruginosa PI-67). The format is in vivo. The settings on record: PI67, im, 168 h, intraperitoneal challenge, compound intramuscularly one hour after infection, survival 7 days after infection, probit analysis, read-out: ED50 (median effective dose). The procedure:
as §1

Consider `C=CC[n+]1ccccc1SCC1=C(C(=O)[O-])N2C(=O)C(NC(=O)/C(=N\O[C@H]3CCNC3=O)c3csc(N)n3)C2SC1` (stereo partly drawn) [Test Compound 3, 7β-{(Z)-2-(2-aminothiazol-4-yl)-2-[((3S)-2-oxopyrrolidin-3-yl)oxyimino]acetamido}-3-(1-allyl-2-pyridinio)thiomethyl-3-cephem-4-carboxylate], for which the ED50 is 0.4 mg/kg in assay [1] and 10.8 mg/kg in assay [4]. Besides, the results for the MIC in assay [2] and in assay [3] were 3.13 µg/mL (≈ 5.08 µM) and 1.56 µg/mL (≈ 2.53 µM), respectively.
In the case of `C[n+]1ccc(SCC2=C(C(=O)[O-])N3C(=O)C(NC(=O)/C(=N\O[C@H]4CCNC4=O)c4csc(N)n4)C3SC2)cc1` (stereo partly drawn) [Test Compound 1, 7β-{(Z)-2-(2-aminothiazol-4-yl)-2-[((3S)-2-oxopyrrolidin-3-yl)oxyimino]acetamido}-3-(1-methyl-4-pyridinio)thiomethyl-3-cephem-4-carboxylate], the figures for the median effective dose (ED50) in assay [1] and in assay [4] were 0.14 mg/kg and 12.3 mg/kg, respectively. Also, the MIC in assay [2] and in assay [3] was 0.78 µg/mL (≈ 1.32 µM) throughout.
Turning to `C[n+]1ccccc1SCC1=C(C(=O)[O-])N2C(=O)C(NC(=O)/C(=N\O[C@H]3CCNC3=O)c3csc(N)n3)C2SC1` (stereo partly drawn) [Test Compound 2, 7β-{(Z)-2-(2-aminothiazol-4-yl)-2-[((3S)-2-oxopyrrolidin-3-yl)oxyimino]acetamido}-3-(1-methyl-2-pyridinio)thiomethyl-3-cephem-4-carboxylate], the results for the 50% effective dose (ED50) in assay [1] and in assay [4] were 0.25 mg/kg and 15.8 mg/kg, respectively. In addition, the MIC in assay [2] came out at 1.56 µg/mL (≈ 2.65 µM); in assay [3], 0.78 µg/mL (≈ 1.32 µM).

The values above are taken from patent US4786633A, “Cephalosporin compounds” (Tanabe Seiyaku Co., Ltd., priority 1986, dated 1988).
